We go through six molecules from US9018630B2, “Heterocyclic dinaphtho thieno thiophene (DNTT) compounds for use as organic semiconductor thin films in field effect transistors and related methods” (Nippon Kayaku Kabushiki Kaisha, priority 2011, dated 2015).

Data set [1] can be described thus: Absorption spectrums of saturated chloroform solutions, solubility ratio (Example 52, FIG. 4). Type of data set: physicochemical. The following applies: for relative intensity of the longest absorption wavelength / Solubility ratio Chloroform: saturated chloroform solutions; for relative intensity of the longest absorption wavelength: 2,9-C10-DNTT = 1; for Solubility ratio Chloroform: compound (2)-64 = 1; for solubility ratio: from FIG. 4, solubility of the DNTT = 1. The text has this: (§1) Absorption spectrums of saturated solutions obtained by dissolving the DNTT having a C10 alkyl group at 2,9-positions (compound (2)-64), the DNTT having a C10 alkyl group at 3,10-positions (compound (1)-12), and the like in chloroform are shown in FIG. 4. In the case of the DNTT having a C10 long-chain alkyl group, from the results, the relative intensity of the longest absorption wavelength according to the substitution position was 3.9 in 3,10-C10-DNTT (compound (1)-12) wherein the relative intensity was 1 in 2,9-C10-DNTT (compound (2)-64). […] It was clearly found out that the solubility of 3,10-C10-DNTT (compound (1)-12) was also high in a heating state (Table 10).
(§2) From FIG. 4 wherein the solubility of the DNTT was 1, the solubility ratio of the DNTT having a short alkyl chain Ref-02 was 0.1 and the solubility ratio of the DNTT having a short alkyl chain Ref-03 was 0.5. […] It was also found out that considering the solution process, the compound having an alkyl substituent at 3,10-positions has more excellent properties. Namely, use of such high solubility enables production of a field effect transistor by creating a practical ink for creating a semiconductor device or applying the ink created.

Data set [2] in a line: Solvent solubility, qualitative statements. Type of data set: physicochemical.
Excerpt: as §2

A short description of data set [3]: Solubility at 60° C. in toluene (Example 52). Type of data set: physicochemical.
Excerpt: as §1

Data set [4] is described as follows: Heat resistance test of TC type field effect transistors (Example 51). The following applies: heat resistance test of the transistor. On the procedure:
Using the compound (1)-22 synthesized in Example 39 and the compound (2)-64 synthesized in Synthesis Example 14, TC type field effect transistors were created by the same operation as that in Example 49 except that a substrate treated with HMDS-SAM was used, the substrate temperature during deposition was 100° C., L=40 μm, and W=1500 μm. The obtained field effect transistors were subjected to a heat resistance test. Comparing the initial properties (μ=1.66 cm^2/Vs, Vth=−14 V, Ion/off˜10^9), the mobility was approximately 1.6 cm^2/Vs even after annealing at 100° C. and 150° C., and the values of these properties were kept approximately equal to the initial values thereof. The properties were improved, for example, Vth was shifted to a low potential side.

Values after ≈ are worked out from the molar mass of the structure shown.

On to `CCCCCCCCCCc1ccc2cc3sc4c5cc6cc(CCCCCCCCCC)ccc6cc5sc4c3cc2c1` [(1)-12, 3,10-didecyl dinaphtho[2,3-b:2′,3′-f]thieno[2,3-b]thiophene], for which the melting point (in general, the temperature, or range, at which the solid turns liquid) fell in the range of 187 to 188 °C. In data set [1], the “relative intensity of the longest absorption wavelength” value is on record as 3.9 and the “Solubility ratio Chloroform” value is listed as 3.8. The solvent solubility result in data set [2] was “higher solvent solubility than that of the compound (2)-64”. Further, in data set [3] (organic solvent or mixture, 60° C., toluene), the solubility (as a rule, the dissolved amount per volume that the medium holds) was above 260 µg/mL.

In the case of `c1ccc(-c2ccc3cc4sc5c6cc7cc(-c8ccccc8)ccc7cc6sc5c4cc3c2)cc1` [(1)-22, 3,10-diphenyl dinaphtho[2,3-b:2′,3′-f]thieno[3,2-b]thiophene], the melting point is above 300 °C. For the same molecule, the thermal stability entry in data set [4] was “high thermal stability”.

Regarding `CCCCCCCCCCc1ccc2cc3sc4c5cc6cc(CCCCCCCCCC)ccc6cc5sc4c3cc2c1` [(2)-64, 2,9-didecyldinaphtho[2,3-b:2′,3′-f]thieno[2,3-b]thiophene], in data set [1], the “relative intensity of the longest absorption wavelength” value came to 1 and the “Solubility ratio Chloroform” value worked out at 1. In data set [3], the “Solubility 60° C. toluene” value is 45 µg/mL (≈ 72.5 µM).

For `c1ccc2cc3c(cc2c1)sc1c2cc4ccccc4cc2sc31` [Ref-01, Dinaphtho[2,3-b:2′,3′-f]thieno[3,2-b]thiophene], the solubility ratio in data set [1] is listed as 1. The solvent solubility entry in data set [2] is “does not dissolve in most of solvents”.

For the molecule `Cc1ccc2cc3sc4c5cc6cc(C)ccc6cc5sc4c3cc2c1` [Ref-02], in data set [1], the solubility ratio turned out to be 0.1. Further, in data set [2], the solvent solubility result is on record as “do not dissolve in most of solvents”.

As to `Cc1ccc2cc3c(cc2c1)sc1c2cc4ccc(C)cc4cc2sc31` [Ref-03], the solubility ratio in data set [1] came to 0.5. In addition, the solvent solubility entry in data set [2] was “do not dissolve in most of solvents”.
